Tests used:
[1] = target: T1, Synaptic vesicular amine transporter (Rattus norvegicus, UniProt Q01827); test: Inhibition of [3H]DA uptake at VMAT2 in rat striatal synaptic vesicles
[2] = target: T1, Synaptic vesicular amine transporter; test: Inhibition of [3H]DTBZ binding to VMAT2 in rat synaptic vesicle membranes; format: cell membranes

T1 sequence (Q01827 whole entry): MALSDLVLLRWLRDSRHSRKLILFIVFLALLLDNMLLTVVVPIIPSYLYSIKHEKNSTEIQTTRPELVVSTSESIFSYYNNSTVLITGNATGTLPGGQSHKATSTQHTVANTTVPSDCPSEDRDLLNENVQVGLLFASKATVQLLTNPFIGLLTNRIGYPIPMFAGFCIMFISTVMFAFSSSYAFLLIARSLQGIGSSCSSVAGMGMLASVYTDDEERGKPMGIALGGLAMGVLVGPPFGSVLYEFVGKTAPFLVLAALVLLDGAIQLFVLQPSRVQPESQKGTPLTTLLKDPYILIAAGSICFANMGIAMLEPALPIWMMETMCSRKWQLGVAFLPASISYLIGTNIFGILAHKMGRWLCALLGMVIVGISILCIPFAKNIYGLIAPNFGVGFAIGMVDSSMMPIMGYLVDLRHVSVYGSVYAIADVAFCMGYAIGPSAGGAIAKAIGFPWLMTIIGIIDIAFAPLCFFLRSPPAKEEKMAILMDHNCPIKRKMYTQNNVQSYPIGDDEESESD

Row | Ki [1] [nM] | Ki [2] [nM] | Compound
1 | 170 | 1430 | OCCN1[C@@H](CCc2ccccc2)CCC[C@H]1CCc1ccccc1
2 | 4490 | 22600 | N#CCN1[C@@H](CCc2ccccc2)CCC[C@H]1CCc1ccccc1
3 | 510 | 5590 | NCCN1[C@@H](CCc2ccccc2)CCC[C@H]1CCc1ccccc1
4 | 680 | 3490 | N=C(N)NCCN1[C@@H](CCc2ccccc2)CCC[C@H]1CCc1ccccc1
5 | 190 | 560 | OC[C@H](O)CN1[C@@H](CCc2ccccc2)CCC[C@H]1CCc1ccccc1
6 | 860 | 1280 | OC[C@@H](O)CN1[C@@H](CCc2ccccc2)CCC[C@H]1CCc1ccccc1
7 | 190 | 1000 | OC[C@H](O)CN1[C@@H](CCc2cccc(F)c2)CCC[C@H]1CCc1cccc(F)c1
8 | 1030 | 1080 | OC[C@@H](O)CN1[C@@H](CCc2cccc(F)c2)CCC[C@H]1CCc1cccc(F)c1
9 | 490 | 1040 | COc1ccccc1CC[C@H]1CCC[C@@H](CCc2ccccc2OC)N1C[C@@H](O)CO
10 | 790 | 1870 | COc1ccccc1CC[C@H]1CCC[C@@H](CCc2ccccc2OC)N1C[C@H](O)CO
11 | 140 | 460 | COc1cccc(CC[C@H]2CCC[C@@H](CCc3cccc(OC)c3)N2C[C@@H](O)CO)c1
12 | 520 | 2730 | COc1cccc(CC[C@H]2CCC[C@@H](CCc3cccc(OC)c3)N2C[C@H](O)CO)c1
13 | 140 | 10400 | OC[C@H](O)CN1[C@@H](CCc2ccc(Cl)cc2Cl)CCC[C@H]1CCc1ccc(Cl)cc1Cl
14 | 90 | 13900 | OC[C@@H](O)CN1[C@@H](CCc2ccc(Cl)cc2Cl)CCC[C@H]1CCc1ccc(Cl)cc1Cl
15 | 30 | 310 | OC[C@H](O)CN1[C@@H](CCc2cccc3ccccc23)CCC[C@H]1CCc1cccc2ccccc12
16 | 80 | 130 | OC[C@@H](O)CN1[C@@H](CCc2cccc3ccccc23)CCC[C@H]1CCc1cccc2ccccc12
17 | 790 | > 100000 | OC[C@H](O)CN1[C@@H](CCc2ccc(-c3ccccc3)cc2)CCC[C@H]1CCc1ccc(-c2ccccc2)cc1
18 | 2250 | 90200 | OC[C@@H](O)CN1[C@@H](CCc2ccc(-c3ccccc3)cc2)CCC[C@H]1CCc1ccc(-c2ccccc2)cc1
19 | 160 | 210 | COc1ccc(F)c(CC[C@H]2CCC[C@@H](CCc3cc(OC)ccc3F)N2C[C@@H](O)CO)c1

The remaining lines, values behind:

Row | Compound | Ki [1] [nM] | Ki [2] [nM]
20 | c1ccc(CC[C@H]2CCC[C@@H](CCc3ccccc3)N2)cc1 | 44 | –
21 | CCN1[C@@H](CCc2ccccc2)CCC[C@H]1CCc1ccccc1 | 60 | –
22 | CCCN1[C@@H](CCc2ccccc2)CCC[C@H]1CCc1ccccc1 | 87 | –
23 | COC(=O)CN1[C@@H](CCc2ccccc2)CCC[C@H]1CCc1ccccc1 | 340 | 4400
24 | CN(C)CCN1[C@@H](CCc2ccccc2)CCC[C@H]1CCc1ccccc1 | 180 | 9590
25 | CN(C)N1[C@@H](CCc2ccccc2)CCC[C@H]1CCc1ccccc1 | 54 | > 100000
26 | OC[C@H](O)CN1[C@@H](CCc2ccc3c(c2)OCO3)CCC[C@H]1CCc1ccc2c(c1)OCO2 | 160 | 1300
27 | OC[C@@H](O)CN1[C@@H](CCc2ccc3c(c2)OCO3)CCC[C@H]1CCc1ccc2c(c1)OCO2 | 760 | 5610
28 | FC(F)Oc1ccc(CC[C@H]2CCC[C@@H](CCc3ccc(OC(F)F)cc3)N2)cc1 | 23 | 1750
29 | OC[C@H](O)CN1[C@@H](CCc2ccc(OC(F)F)cc2)CCC[C@H]1CCc1ccc(OC(F)F)cc1 | 60 | 530
30 | COc1ccc(F)c(CC[C@H]2CCC[C@@H](CCc3cc(OC)ccc3F)N2)c1 | 39 | 930
31 | Fc1cc(F)cc(CC[C@H]2CCC[C@@H](CCc3cc(F)cc(F)c3)N2)c1 | 43 | 5240
32 | OC[C@H](O)CN1[C@@H](CCc2cc(F)cc(F)c2)CCC[C@H]1CCc1cc(F)cc(F)c1 | 104 | 620
33 | COc1ccc(C[C@H]2CCC[C@@H](Cc3ccc(OC)cc3)N2)cc1 | 48 | 13100
34 | COc1ccc(C[C@H]2CCC[C@@H](Cc3ccc(OC)cc3)N2C[C@@H](O)CO)cc1 | 570 | 91000
